The results in this text go back to patent publication US5430062A, “Stilbene derivatives as anticancer agents” (priority 1993, dated 1995).

One assay deals with tubulin. The assay can be described thus: Inhibition of tubulin polymerization (turbidimetry). The assay is classed as biochemical, bovine.
The subject of another assay is MLM melanoma. The assay can be described thus: MTT cytotoxicity assay, MLM. Conditions: […]. On the technique in general: Tetrazolium dyes change colour on reduction, which living cells bring about.
For another assay, the system named is A-549 lung carcinoma. The experiment in a line: MTT cytotoxicity assay, A-549. Conditions: Homo sapiens, A549, […].
A further assay relates to MCF-7 breast carcinoma. The experiment in a line: MTT cytotoxicity assay, MCF-7. To be noted: Homo sapiens, MCF7, […].
Assay [1] has as its system HT-29 colon adenocarcinoma. The experiment in a line: MTT cytotoxicity assay, HT-29. To be noted: Homo sapiens, HT-29, […].
The test system of a further assay is SKMEL-5 melanoma. The assay can be described thus: MTT cytotoxicity assay, SKMEL-5. To be noted: Homo sapiens, SK-MEL-5, […], read-out: Cytotoxicity ED50, SKMEL-5.
Where [2] appears, read: read-out: Cytotoxicity ED50, MLM.
[3] abbreviates: read-out: Cytotoxicity ED50, A-549.
The mark [4] stands for this setting: read-out: Cytotoxicity ED50, MCF-7.
Setting [5] is: read-out: Cytotoxicity ED50, HT-29.
Where [6] appears, read: second series (Tables V-VII, IX), read-out: Inhibition of Tubulin Polymerization IC50 (±S.D.).

Counter-ions that a name gives are not always drawn. Like-named read-outs stand apart in the source and are kept apart here.

In the case of `COc1cc(CCc2cc(OC)c(OC)c(OC)c2)cc(OC)c1` [compound 8s], the “inhibition of tubulin polymerization (in words)” value with tubulin is on record as “lower activity”. For the same molecule, the IC50 (in the assay on MLM melanoma (setting [2]); in the assay on A-549 lung carcinoma (setting [3]); in the assay with MCF-7 breast carcinoma (setting [4]); in assay [1] (setting [5]); with SKMEL-5 melanoma) was above 25 µM each time.
`COc1ccc2c(ccc3cc(OC)c(OC)c(OC)c32)c1` [32c, 2,3,4,7-Tetramethoxyphenanthrene]: the IC50 in the assay on tubulin (setting [6]) was above 40 µM; in the assay on MLM melanoma (setting [2]), above 25 µM; with A-549 lung carcinoma (setting [3]), above 25 µM; in the assay on MCF-7 breast carcinoma (setting [4]) it was above 25 µM; in assay [1] (setting [5]), above 25 µM; in the assay with SKMEL-5 melanoma, above 25 µM.
Take `COc1cc(CCc2ccc(C)cc2)cc(OC)c1OC` [17d, 1-(4-Methylphenyl)-2-(3,4,5-trimethoxyphenyl)ethane]: the IC50 stood at 21 µM with tubulin (setting [6]); 1.4 µM in the assay on MLM melanoma (setting [2]); 0.18 µM in the assay with A-549 lung carcinoma (setting [3]); 0.22 µM in the assay with MCF-7 breast carcinoma (setting [4]); 0.1 µM in assay [1] (setting [5]); 0.27 µM in the assay with SKMEL-5 melanoma.
In the case of `COc1ccc(C2Cc3cc(OC)c(OC)c(OC)c3C2=O)cc1` (stereo not shown) [compound 34, 2-(4-Methoxyphenyl)-4,5,6-trimethoxyindan-3-one], the IC50 with tubulin (setting [6]) is above 40 µM; in the assay on MLM melanoma (setting [2]), above 25 µM; in the assay on A-549 lung carcinoma (setting [3]), above 25 µM; in the assay on MCF-7 breast carcinoma (setting [4]), above 25 µM; in assay [1] (setting [5]), above 25 µM; with SKMEL-5 melanoma it was above 25 µM.
For `COc1ccc(CNc2cc(OC)c(OC)c(OC)c2)cc1` [12c, 4-Methoxy-N-(3,4,5-trimethoxyphenyl)benzylamine], the “inhibition of tubulin polymerization (in words)” value in the assay on tubulin is recorded as “lower inhibitory activity”. Further, the IC50 is above 50 µM with tubulin (first series (Table VIII and text), 37° C., 20 min, read-out: Tubulin polymerization IC50 (±S.D.)); above 25 µM in the assay on MLM melanoma (setting [2]); 0.83 µM in the assay with A-549 lung carcinoma (setting [3]); 0.86 µM in the assay on MCF-7 breast carcinoma (setting [4]); 2.24 µM in assay [1] (setting [5]); 1.13 µM in the assay on SKMEL-5 melanoma.
As to `COc1cc(/C=C\c2ccc(C)cc2)cc(OC)c1OC` [15d, (Z)-(4-Methylphenyl)-2-(3,4,5-trimethoxyphenyl)ethene], the IC50 in the assay on MLM melanoma (setting [2]) turned out to be 0.0066 µM; in the assay with A-549 lung carcinoma (setting [3]) it was 0.00094 µM; in the assay with MCF-7 breast carcinoma (setting [4]), 0.024 µM; in assay [1] (setting [5]) it was 0.0023 µM; in the assay with SKMEL-5 melanoma, 0.00083 µM.
On to `COc1ccccc1/C=C/c1cc(OC)c(OC)c(OC)c1` [6c], for which the IC50 in the assay with MLM melanoma (setting [2]) is above 25 µM; in the assay with A-549 lung carcinoma (setting [3]) it was 12.2 µM; in the assay with MCF-7 breast carcinoma (setting [4]), 18 µM; in assay [1] (setting [5]), 12.1 µM; in the assay with SKMEL-5 melanoma it was 13.5 µM.
The like results for `COc1cc(CCc2cccnc2)cc(OC)c1OC` [8j, 1-(3-Pyridyl)-2-(3,4,5-trimethoxyphenyl)ethane] were, in that order, above 25 µM, 12.2 µM, above 25 µM, above 25 µM and above 25 µM.
Turning to `COc1cc(OC)c(OC)cc1/C=C/c1ccccc1` [6w], the IC50 in the assay with MLM melanoma (setting [2]) is above 25 µM; in the assay with A-549 lung carcinoma (setting [3]), above 25 µM; in the assay with MCF-7 breast carcinoma (setting [4]) it was 8.5 µM; in assay [1] (setting [5]) it was above 25 µM; with SKMEL-5 melanoma, above 25 µM.
With `COc1cc(OC)c(OC)cc1/C=C/c1cc(OC)c(OC)c(OC)c1` [6v], the IC50 (in the assay on MLM melanoma (setting [2]); with A-549 lung carcinoma (setting [3]); in the assay on MCF-7 breast carcinoma (setting [4]); in assay [1] (setting [5]); in the assay on SKMEL-5 melanoma) was above 25 µM in each case.
As for `CCCc1ccc(NCc2cc(OC)c(OC)c(OC)c2)cc1` [110g, 4-n-Propyl-N-(3,4,5-trimethoxybenzyl)aniline Hydrochloride], the IC50 with tubulin (Table X, different glutamate preparation (1M monosodium glutamate and GTP), read-out: inhibn of tubulin polymn IC50 (±SD)) is above 40 µM.
Take `COc1cc(/C=C/c2ccncc2)cc(OC)c1OC` [6i, 1-(4-Pyridyl)-2-(3,4,5-trimethoxyphenyl)ethene]: the IC50 (in the assay with MLM melanoma (setting [2]); in the assay with A-549 lung carcinoma (setting [3]); with MCF-7 breast carcinoma (setting [4]); in assay [1] (setting [5]); in the assay with SKMEL-5 melanoma) was above 25 µM each time.
With `COc1cccc(/C=C/c2cc(OC)c(OC)c(OC)c2)c1` [6b], the IC50 was above 25 µM with MLM melanoma (read-out: Cytotoxicity ED50, MLM, MLM, MTT, six days); 9.8 µM in the assay on A-549 lung carcinoma (read-out: Cytotoxicity ED50, A-549, A-549, MTT, six days); 12.2 µM in the assay with MCF-7 breast carcinoma (read-out: Cytotoxicity ED50, MCF-7, MCF-7, MTT, six days); 7.3 µM in assay [1] (read-out: Cytotoxicity ED50, HT-29, HT-29, MTT, six days); 10.5 µM in the assay with SKMEL-5 melanoma.
For the molecule `COc1ccc(/C=C/c2cc(OC)c(O[Si](C)(C)C(C)(C)C)c(OC)c2)cc1` [16k, (E)-1-[4-{(t-Butyldimethylsilyl)-oxy}-3,5-(dimethoxy)-phenyl]-2-(4-methoxyphenyl)ethene], the IC50 (in the assay on MLM melanoma (setting [2]); in the assay on A-549 lung carcinoma (setting [3]); in the assay on MCF-7 breast carcinoma (setting [4]); in assay [1] (setting [5]); in the assay on SKMEL-5 melanoma) was above 25 µM throughout.
Consider `COc1cc(/C=C/c2cccnc2)cc(OC)c1OC` [6j, 1-(3-Pyridyl)-2-(3,4,5-trimethoxyphenyl)ethene], for which the IC50 (in the assay with MLM melanoma (setting [2]); in the assay on A-549 lung carcinoma (setting [3]); in the assay on MCF-7 breast carcinoma (setting [4]); in assay [1] (setting [5]); with SKMEL-5 melanoma) was above 25 µM each time.
Take `COc1cccc(CCc2cc(OC)c(OC)c(OC)c2)c1` [8b]: the IC50 in the assay with MLM melanoma (setting [2]) is above 25 µM; with A-549 lung carcinoma (setting [3]), 11.7 µM; with MCF-7 breast carcinoma (setting [4]), 12.4 µM; in assay [1] (setting [5]), 7.6 µM; in the assay with SKMEL-5 melanoma, 9.2 µM.
For `COc1ccccc1CCc1cc(OC)c(OC)c(OC)c1` [8c] the same measures were above 25 µM, 13.5 µM, 11.8 µM, above 25 µM and 20 µM.
Turning to `COc1cc(/C=C/c2ccc(O)cc2)cc(OC)c1OC` [compound 6o, (E)-1-(4-Hydroxyphenyl)-2-(3,4,5-trimethoxyphenyl)ethene], the IC50 was 24.2 µM in the assay on MLM melanoma (setting [2]); above 25 µM in the assay with A-549 lung carcinoma (setting [3]); 18.6 µM in the assay on MCF-7 breast carcinoma (setting [4]); above 25 µM in assay [1] (setting [5]); 11.6 µM in the assay with SKMEL-5 melanoma.
For `COc1cc(CCc2ccc(O)cc2)cc(OC)c1OC` [8o, 1-(4-hydroxyphenyl)-2-(3,4,5-trimethoxyphenyl)ethane], the IC50 (in the assay with MLM melanoma (setting [2]); with A-549 lung carcinoma (setting [3]); with MCF-7 breast carcinoma (setting [4]); in assay [1] (setting [5]); in the assay on SKMEL-5 melanoma) was above 25 µM each time.
On to `COc1ccc(/C=C\c2cc(OC)c(OCc3ccccc3)c(OC)c2)cc1` [15j, (Z)-1-[4-(Benzyloxy)-3,5-(dimethoxy)phenyl]-2-(4-methoxyphenyl)ethene], for which the IC50 in the assay on tubulin (setting [6]) is above 40 µM.
With `COc1cccc2c1C(=O)c1c(O)c3c(c(O)c1C2=O)C[C@@](O)(C(=O)CO)C[C@@H]3O[C@H]1C[C@H](N)[C@H](O)[C@H](C)O1` [Adriamycin, reference compound], the IC50 in the assay on MLM melanoma (setting [2]) came out at 0.13 µM; in the assay on A-549 lung carcinoma (setting [3]), 0.029 µM; in the assay on MCF-7 breast carcinoma (setting [4]), 0.031 µM; in assay [1] (setting [5]), 0.055 µM; in the assay with SKMEL-5 melanoma, 0.032 µM.
`CCc1ccc(/C=C\c2cc(OC)c(OC)c(OC)c2)cc1` [15e, (Z)-(4-Ethylphenyl)-2-(3,4,5-trimethoxyphenyl)ethene]: the IC50 in the assay with MLM melanoma (setting [2]) is 0.0075 µM; in the assay with A-549 lung carcinoma (setting [3]) it was 0.012 µM; with MCF-7 breast carcinoma (setting [4]), 0.072 µM; in assay [1] (setting [5]), 0.0027 µM; in the assay with SKMEL-5 melanoma it was 0.00086 µM.
With `COc1cc(CCc2ccc(OC(C)=O)cc2)cc(OC)c1OC` [8p], the IC50 was above 25 µM in the assay on MLM melanoma (setting [2]); 19 µM with A-549 lung carcinoma (setting [3]); above 25 µM with MCF-7 breast carcinoma (setting [4]); above 25 µM in assay [1] (setting [5]); above 25 µM with SKMEL-5 melanoma.
In the case of `COc1ccc(/C=C/c2ccccc2)cc1OC` [6q, (E)-1-(3,4-Dimethoxyphenyl)-2-phenylethene], the IC50 (with MLM melanoma (setting [2]); in the assay on A-549 lung carcinoma (setting [3]); with MCF-7 breast carcinoma (setting [4]); in assay [1] (setting [5]); with SKMEL-5 melanoma) was above 25 µM each time.
For the molecule `COc1ccc(C(=O)Nc2cc(OC)c(OC)c(OC)c2)cc1` [11c, 4-Methoxy-N-(3,4,5-trimethoxyphenyl)benzamide], the IC50 (with MLM melanoma (setting [2]); with A-549 lung carcinoma (setting [3]); in the assay with MCF-7 breast carcinoma (setting [4]); in assay [1] (setting [5]); with SKMEL-5 melanoma) was above 25 µM throughout.
`COc1cc(/C=C/c2ccc(O[Si](C)(C)C(C)(C)C)cc2)cc(OC)c1OC` [6m, (E)-1-[(4-t-Butyldimethylsilyloxy)phenyl]-2-(3,4,5-trimethoxyphenyl)ethene]: the IC50 (with MLM melanoma (setting [2]); with A-549 lung carcinoma (setting [3]); in the assay on MCF-7 breast carcinoma (setting [4]); in assay [1] (setting [5]); with SKMEL-5 melanoma) was above 25 µM each time.
For the molecule `COc1ccc(/C=C/c2cc(OC)cc(OC)c2)cc1` [16i, (E)-1-(3,5-Dimethoxyphenyl)-2-(4-methoxyphenyl)ethene], the IC50 in the assay on MLM melanoma (setting [2]) is above 25 µM; with A-549 lung carcinoma (setting [3]), 7.5 µM; with MCF-7 breast carcinoma (setting [4]), 9.7 µM; in assay [1] (setting [5]), 6.9 µM; in the assay on SKMEL-5 melanoma it was 0.88 µM.
`COc1ccc(/C=C\c2cc(OC)c(OC)c(OC)c2)cc1` [compound E, reference compound]: the IC50 in the assay on tubulin (Table X footnote b, different glutamate preparation, read-out: tubulin polymerization IC50, standard agents) worked out at 1.2 ± 0.05 µM.
With `COc1cc(CCc2ccc(OC)c(OC)c2OC)cc(OC)c1OC` [8t], the IC50 (in the assay with MLM melanoma (setting [2]); in the assay on A-549 lung carcinoma (setting [3]); in the assay on MCF-7 breast carcinoma (setting [4]); in assay [1] (setting [5]); with SKMEL-5 melanoma) was above 25 µM each time.
